Laboratory results from the NIST ThermoML archive (doi:10.1016/j.jct.2009.07.006).
Numbers after ± are expanded uncertainties.

Conditions: Liquid, Vibrating tube method

Cc1cccnc1 [3-methylpyridine]
mass density [kg/m3]
Conditions	298.15 K	308.15 K	318.15 K	328.15 K
2130 kPa	953.2 ± 0.3	944.3 ± 0.3	935.3 ± 0.3	926.3 ± 0.3
4150 kPa	954.5 ± 0.3	945.7 ± 0.3	936.7 ± 0.3	927.8 ± 0.3
6180 kPa	955.8 ± 0.3	947.1 ± 0.3	938.1 ± 0.3	929.2 ± 0.3
8210 kPa	957.1 ± 0.3	948.4 ± 0.3	939.4 ± 0.3	930.7 ± 0.3
10230 kPa	958.4 ± 0.3	949.7 ± 0.3	940.9 ± 0.3	932.2 ± 0.3
11250 kPa	959 ± 0.3	950.4 ± 0.3	941.6 ± 0.3	932.9 ± 0.3
12260 kPa	959.6 ± 0.3	951 ± 0.3	942.3 ± 0.3	933.6 ± 0.3
14290 kPa	960.8 ± 0.3	952.3 ± 0.3	943.6 ± 0.3	935 ± 0.3
16310 kPa	962.1 ± 0.3	953.6 ± 0.3	944.9 ± 0.3	936.4 ± 0.3
18340 kPa	963.3 ± 0.3	954.8 ± 0.3	946.2 ± 0.3	937.7 ± 0.3
20370 kPa	964.4 ± 0.3	956.1 ± 0.3	947.5 ± 0.3	939.1 ± 0.3
22390 kPa	965.6 ± 0.3	957.3 ± 0.3	948.8 ± 0.3	940.4 ± 0.3
24420 kPa	966.7 ± 0.3	958.5 ± 0.3	950.1 ± 0.3	941.7 ± 0.3
26450 kPa	967.9 ± 0.3	959.7 ± 0.3	951.3 ± 0.3	943.1 ± 0.3
28470 kPa	969 ± 0.3	960.9 ± 0.3	952.6 ± 0.3	944.4 ± 0.3
29490 kPa	969.6 ± 0.3	961.5 ± 0.3	953.2 ± 0.3	945 ± 0.3
30500 kPa	970.1 ± 0.3	962 ± 0.3	953.8 ± 0.3	945.7 ± 0.3
32530 kPa	971.2 ± 0.3	963.2 ± 0.3	955 ± 0.3	946.9 ± 0.4
34550 kPa	972.3 ± 0.3	964.3 ± 0.3	956.2 ± 0.3	948.2 ± 0.4
36580 kPa	973.4 ± 0.3	965.4 ± 0.3	957.4 ± 0.3	949.4 ± 0.4
38600 kPa	974.5 ± 0.3	966.5 ± 0.3	958.5 ± 0.3	950.6 ± 0.4
39620 kPa	975 ± 0.3	967.1 ± 0.3	959.1 ± 0.3	951.2 ± 0.4

c1ccncc1 [pyridine]
mass density [kg/m3]
Conditions	298.15 K	308.15 K	318.15 K	328.15 K
2130 kPa	979 ± 0.2	969.2 ± 0.2	959.3 ± 0.2	949.2 ± 0.2
4150 kPa	980.4 ± 0.2	970.6 ± 0.2	960.8 ± 0.2	950.7 ± 0.2
6180 kPa	981.8 ± 0.2	972.1 ± 0.2	962.3 ± 0.2	952.3 ± 0.2
8210 kPa	983.2 ± 0.2	973.5 ± 0.2	963.7 ± 0.2	953.9 ± 0.2
10230 kPa	984.5 ± 0.2	974.9 ± 0.2	965.2 ± 0.2	955.4 ± 0.2
11250 kPa	985.1 ± 0.2	975.6 ± 0.2	966 ± 0.2	956.2 ± 0.2
12260 kPa	985.8 ± 0.2	976.3 ± 0.2	966.7 ± 0.2	956.9 ± 0.2
14290 kPa	987.1 ± 0.2	977.6 ± 0.2	968.1 ± 0.2	958.4 ± 0.2
16310 kPa	988.3 ± 0.2	978.9 ± 0.2	969.5 ± 0.2	959.9 ± 0.2
18340 kPa	989.6 ± 0.2	980.3 ± 0.2	970.9 ± 0.2	961.3 ± 0.2
20370 kPa	990.8 ± 0.2	981.6 ± 0.2	972.2 ± 0.2	962.8 ± 0.2
22390 kPa	992.1 ± 0.2	982.8 ± 0.2	973.6 ± 0.2	964.2 ± 0.2
24420 kPa	993.3 ± 0.2	984.1 ± 0.2	974.9 ± 0.2	965.6 ± 0.2
26450 kPa	994.5 ± 0.2	985.4 ± 0.2	976.2 ± 0.2	967 ± 0.2
28470 kPa	995.7 ± 0.2	986.7 ± 0.2	977.6 ± 0.2	968.3 ± 0.2
29490 kPa	996.3 ± 0.2	987.2 ± 0.2	978.2 ± 0.2	969 ± 0.2
30500 kPa	996.9 ± 0.2	987.8 ± 0.2	978.8 ± 0.2	969.7 ± 0.2
32530 kPa	998 ± 0.2	989 ± 0.2	980.1 ± 0.2	971 ± 0.2
34550 kPa	999.1 ± 0.2	990.3 ± 0.2	981.4 ± 0.2	972.3 ± 0.2
36580 kPa	1000.3 ± 0.2	991.5 ± 0.2	982.6 ± 0.2	973.6 ± 0.2
38600 kPa	1001.4 ± 0.2	992.6 ± 0.2	983.8 ± 0.2	975 ± 0.2
39620 kPa	1002 ± 0.2	993.2 ± 0.2	984.4 ± 0.2	975.6 ± 0.2
